Test results from patent publication US11084842B2 (SUNSHINE LAKE PHARMA CO., LTD., priority 2018, dated 2021).

Legend:
[1] = system: blood glucose of SD rats; assay: Oral glucose tolerance test in SD rats (Test Method 2); type: in vivo; details: glucose 4.0 g/kg, decline rate of AUCGlu 0-60min
Experimental: The following methods were used to evaluate the effects of the compound of the invention on improving oral glucose tolerance and glycosuria excretion.
The weights and the fasting blood glucose levels of male SD rats were measured after an overnight 15-hours fast. The rats were grouped by their weights and fasting plasma glucose levels. […] After 30 minutes, the blood glucose level (i.e., zero point blood glucose) of each group was measured, and then each group was immediately administered glucose (4.0 g/kg) once by gavage. The blood was drawn from the caudal vein of the […] at 15, 30 and 60 minutes after glucose administration and the blood glucose levels were measured continuously on blood-glucose meter. The decline rate of the area under the blood sugar curve within 60 minutes (AUCGlu 0-60min) after sugar loading was calculated.

[2] = molecular target: T1, human SGLT1 (Homo sapiens, UniProt P13866); assay: Test of inhibitory activity on SGLT1 ([14C]-AMG uptake in CHO cells expressing human SGLT1); type: cell-based; details: CHO cells expressing human SGLT1, 0.5 μM [14C]-AMG, 37° C., 1 hour
T1 construct: expressed in transfected cells; host or cells: CHO cells (FIP-in CHO; mock-transfected cells as control)
T1 sequence (P13866 1-664): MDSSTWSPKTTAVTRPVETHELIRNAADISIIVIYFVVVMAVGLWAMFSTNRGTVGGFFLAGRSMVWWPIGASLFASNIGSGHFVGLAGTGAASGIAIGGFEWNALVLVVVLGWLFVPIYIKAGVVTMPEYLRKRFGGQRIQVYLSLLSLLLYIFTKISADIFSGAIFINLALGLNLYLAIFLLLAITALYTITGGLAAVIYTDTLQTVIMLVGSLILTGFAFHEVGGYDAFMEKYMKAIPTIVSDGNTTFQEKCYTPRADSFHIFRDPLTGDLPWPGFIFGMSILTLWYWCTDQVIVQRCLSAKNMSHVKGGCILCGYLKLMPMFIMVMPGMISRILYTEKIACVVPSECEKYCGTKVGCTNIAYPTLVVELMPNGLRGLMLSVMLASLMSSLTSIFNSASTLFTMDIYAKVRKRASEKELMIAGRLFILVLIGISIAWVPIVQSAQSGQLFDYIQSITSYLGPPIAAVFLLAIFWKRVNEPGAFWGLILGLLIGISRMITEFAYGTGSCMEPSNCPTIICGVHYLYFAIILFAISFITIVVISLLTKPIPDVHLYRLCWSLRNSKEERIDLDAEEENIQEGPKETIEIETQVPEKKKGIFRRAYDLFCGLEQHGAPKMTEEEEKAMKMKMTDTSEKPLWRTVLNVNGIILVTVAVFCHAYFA
Experimental: The following methods can be used to determine the inhibitory activity of the compound of the invention on SGLT-1.
Mock-transfected FIP-in CHO cells (3×10^4 cells) and expressing human SGLT1 CHO cells were seeded into 96-well plates respectively. The cells were incubated for 12 hours. Each well of the 96-well plate was washed with 150 μL of sodium-free buffer once. To each well was added 50 μL of sodium-containing buffer containing test compounds having different concentrations and 0.5 μM [^14C]-AMG. The incubation mixture was incubated at 37° C. for 1 hour. To each well was added 150 μL of precooled sodium-free buffer to terminate the reaction. The cell pellet was washed with sodiumfree buffer three times and the residual liquid in well was removed. To each well was added 20 μL of precooled 100 mM NaOH. The 96-well plate was vibrated at 900 rpm for 5 minutes. Scintillation fluid (80 μL) was added to each well which was then vibrated at 600 rpm for 5 minutes. The amount of ^14C-AMG was quantitatively detected using liquid scintillation.

Row | IC50 [2] | Compound | hypoglycemic rate (%) ([1]; dosage 1 mg/kg by gavage) | hypoglycemic rate (%) ([1]; dosage 0.1 mg/kg by gavage)
1 |  | Cc1ccc([C@]23OC[C@](C(C)(C)O)(O2)[C@@H](O)[C@H](O)[C@H]3O)cc1Cc1ccc(CCCC(=O)NC(C)(C)C(=O)NCCN(C)C)cc1 [Example 2] | 31.64% | 
2 |  | Cc1ccc([C@]23OC[C@](C(C)(C)O)(O2)[C@@H](O)[C@H](O)[C@H]3O)cc1Cc1ccc(CCCC(=O)N[C@@H](C)C(=O)NCCN(C)C)cc1 [Example 6, N-[(1S)-2-(2-dimethylaminoethylamino)-1-methyl-2-oxo-ethyl]-4-[4-[[2-methyl-5-[(1S,2S,3S,4R,5S)-2,3,4-trihydroxy-1-(1-hydroxy-1-methyl-ethyl)-6,8-dioxabicyclo[3.2.1]octane-5-yl]phenyl]methyl]phenyl]butanamide] | 33.19% | 
3 | 0.24 nM | Cc1ccc([C@]23OC[C@](C(C)(C)O)(O2)[C@@H](O)[C@H](O)[C@H]3O)cc1Cc1ccc(CCCC(=O)NC2(C(=O)NCCN(C)C)CCCC2)cc1 [Example 8, N-(2-dimethylaminoethyl)-1-[4-[4-[[2-methyl-5-[(1S,2S,3S,4R,5S)-2,3,4-trihydroxy-1-(1-hydroxy-1-methyl-ethyl)-6,8-dioxabicyclo[3.2.1]octane-5-yl]phenyl]methyl]phenyl]butylamide]cyclopentyl formamide] |  | 
4 | 1.61 nM | Cc1ccc([C@]23OC[C@](C(C)(C)O)(O2)[C@@H](O)[C@H](O)[C@H]3O)cc1Cc1ccc(CCCC(=O)N[C@H](C(=O)NCCN(C)C)C2CC2)cc1 [Example 10, N-[(1S)-1-cyclopropyl-2-(2-dimethylaminoethylamino)-2-oxo-ethyl]-4-[4-[[2-methyl-5-[(1S,2S,3S,4R,5S)-2,3,4-trihydroxy-1-(1-hydroxy-1-methyl-ethyl)-6,8-dioxabicyclo[3.2.1]octane-5-yl]phenyl]methyl]phenyl]butanamide] |  | 
5 | 0.23 nM | Cc1ccc([C@]23OC[C@](C(C)(C)O)(O2)[C@@H](O)[C@H](O)[C@H]3O)cc1Cc1ccc(CCCC(=O)NC2(C(=O)NCCN(C)C)CCC2)cc1 [Example 11] |  | 
6 | 1.51 nM | CCC(CC)(NC(=O)CCCc1ccc(Cc2cc([C@]34OC[C@](C(C)(C)O)(O3)[C@@H](O)[C@H](O)[C@H]4O)ccc2C)cc1)C(=O)NCCN(C)C [Example 12, N-(2-dimethylaminoethyl)-2-ethyl-2-[4-[4-[[2-methyl-5-[(1S,2S,3S,4R,5S)-2,3,4-trihydroxy-1-(1-hydroxy-1-methyl-ethyl)-6,8-dioxabicyclo[3.2.1]octane-5-yl]phenyl]methyl]phenyl]butanamido]butanamide] |  | 
7 | 2.9 nM | Cc1ccc([C@]23OC[C@](C)(O2)[C@@H](O)[C@H](O)[C@H]3O)cc1Cc1ccc(CCCC(=O)NC(C)(C)C(=O)NCCN(C)C)cc1 [Example 13] |  | 
8 | 0.57 nM | CC[C@@]12CO[C@@](c3ccc(C)c(Cc4ccc(CCCC(=O)NC(C)(C)C(=O)NCCN(C)C)cc4)c3)(O1)[C@H](O)[C@@H](O)[C@@H]2O [Example 14, N-(2-dimethylaminoethyl)-2-[4-[4-[[5-[(1S,2S,3S,4R,5S)-1-ethyl-2,3,4-trihydroxy-6,8-dioxabicyclo[3.2.1]octane-5-yl]-2-methyl-phenyl]methyl]phenyl]butanamido]-2-methyl-propionamide] |  | 
9 | 0.47 nM | Cc1ccc([C@]23OC[C@](C(C)(C)O)(O2)[C@@H](O)[C@H](O)[C@H]3O)cc1Cc1ccc(CCCC(=O)NC2(C(=O)NCCN(C)C)CCCCC2)cc1 [Example 16, N-(2-dimethylaminoethyl)-1-[4-[4-[[2-methyl-5-[(1S,2S,3S,4R,5S)-2,3,4-trihydroxy-1-(1-hydroxy-1-methyl-ethyl)-6,8-dioxabicyclo[3.2.1]octane-5-yl]phenyl]methyl]phenyl]butylamide]cyclohexyl carboxamide] |  | 30.93%
10 | 0.4 nM | Cc1ccc([C@]23OC[C@](C)(O2)[C@@H](O)[C@H](O)[C@H]3O)cc1Cc1ccc(CCCC(=O)NC2(C(=O)NCCN(C)C)CCC2)cc1 [Example 17, N-(2-dimethylaminoethyl)-1-[4-[4-[[2-methyl-5-[(1S,2S,3S,4R,5S)-2,3,4-trihydroxy-1-methyl-6,8-dioxabicyclo[3.2.1]octane-5-yl]phenyl]methyl]phenyl]butanamido]cyclobutyl carboxamide] |  | 
11 | 0.43 nM | Cc1ccc([C@]23OC[C@](C)(O2)[C@@H](O)[C@H](O)[C@H]3O)cc1Cc1ccc(CCCC(=O)NC2(C(=O)NCCN(C)C)CCCCC2)cc1 [Example 18] |  | 
12 | 0.55 nM | Cc1ccc([C@]23OC[C@](C)(O2)[C@@H](O)[C@H](O)[C@H]3O)cc1Cc1ccc(OCCCC(=O)NC2(C(=O)NCCN(C)C)CCC2)cc1 [Example 20, N-(2-dimethylaminoethyl)-1-[4-[4-[[2-methyl-5-[(1S,2S,3S,4R,5S)-2,3,4-trihydroxy-1-methyl-6,8-dioxabicyclo[3.2.1]octane-5-yl]phenyl]methyl]phenoxy]butanamido]cyclobutyl carboxamide] |  | 
13 | 0.6 nM | Cc1ccc([C@]23OC[C@](C)(O2)[C@@H](O)[C@H](O)[C@H]3O)cc1Cc1ccc(OCCCC(=O)NC2(C(=O)NCCN(C)C)CCCCC2)cc1 [Example 21, N-(2-dimethylaminoethyl)-1-[4-[4-[[2-methyl-5-[(1S,2S,3S,4R,5S)-2,3,4-trihydroxy-1-methyl-6,8-dioxabicyclo[3.2.1]octane-5-yl]phenyl]methyl]phenoxy]butanamido]cyclohexylcarboxamide] |  | 
